The numbers were not newly measured in patent publication US20080038350A1, “LOW-DOSAGE PERORAL MEDICATION FOR CONTRACEPTION CONTAINING CRYSTALLINE DIENOGEST AND ETHINYL ESTRADIOL” (priority 2006, published 2008), which cites them from elsewhere.

The test system of one data set is ovulation inhibition. The conditions noted are these: micronized, average particle size of about 3 μm.
The conditions of data set [1]: single dosage.

Regarding `C[C@]12CCC3=C4CCC(=O)C=C4CC[C@H]3[C@@H]1CC[C@@]2(O)CC#N` [dienogest, 17α-cyanomethyl-17β-hydroxyestra-4,9-dien-3-one], in the data set with ovulation inhibition, the “optimum dosage for reliable ovulation inhibition” value is listed as 2 mg.
For the molecule `C[C@H]1O[C@@H](O[C@H]2[C@@H](O)C[C@H](O[C@H]3[C@@H](O)C[C@H](O[C@H]4CC[C@@]5(C)[C@H](CC[C@@H]6[C@@H]5C[C@@H](O)[C@]5(C)[C@@H](C7=CC(=O)OC7)CC[C@]65O)C4)O[C@@H]3C)O[C@@H]2C)C[C@H](O)[C@@H]1O` [digoxin], in data set [1], the “plasma level, average particle size 3.7 μm versus powder of 22 μm” value is “nearly twice as high”.
